{
  "source": "patent US8815928B2",
  "about": "“Hepatitis C virus inhibitors” (priority 2009, dated 2014)",
  "system": "HCV 1b genotype replicon",
  "experiment": "HCV genotype-1b replicon assay (qRT-PCR or luciferase)",
  "format": "cell-based",
  "details": "Hepatitis C virus, read-out: Genotype-1b replicon EC50 Range",
  "from_the_text": "HCV replicon cell lines (kindly provided by R. Bartenschlager) isolated from colonies as described by Lohman et. al. (Lohman et al. (1999) Science 285: 110-113, expressly incorporated by reference in its entirety) and used for all experiments. The HCV replicon has the nucleic acid sequence set forth in EMBL Accession No.: AJ242651, the coding sequence of which is from nucleotides 1801 to 8406.\nThe coding sequence of the published HCV replicon was synthesized and subsequently assembled in a modified plasmid pBR322 (Promega, Madison, Wis.) using standard molecular biology techniques. […]\nEC50 values of single agent compounds and combinations were determined by HCV RNA detection using quantitative RT-PCR, according to the manufacturer's instructions, with a TAQMAN® One-Step RT-PCR Master Mix Reagents Kit (Cat# AB 4309169, Applied Biosystems) on an ABI Model 7500 thermocycler. The TaqMan primers used for detecting and quantifying HCV RNA were obtained from Integrated DNA Technologies. HCV RNA was normalized to GAPDH RNA levels in drug-treated cells, which was detected and quantified using the Human GAPDH Endogenous Control Mix (Applied Biosystems, AB 4310884E). […] Chemical agent cytotoxicity was evaluated using an MTS assay according to the manufacturer's directions (Promega). […]",
  "data": [
    {"smiles": "COC(=O)N[C@H](C(=O)N1CCC[C@H]1C(=O)Nc1ncc(-c2ccc3cc(-c4cnc([C@@H]5CCCN5C(=O)[C@@H](NC(=O)OC)C(C)C)[nH]4)ccc3c2)cn1)C(C)C", "note": "[Compound 348]", "values": [
      {"measurement": "EC50", "value": "1 to 10", "unit": "nM"}
    ]}
  ]
}
